Data taken from PMC2931804 (Clinical cancer research : an official journal of the …, 2010).
Read-outs that look alike come from different tables or passages of the source.

[1] = DL1 500 mg twice daily × 3 + sLV5FU2, 1st cycle, n = 3
[2] = DL1 500 mg twice daily × 3 + sLV5FU2, Any cycle, n = 3
[3] = DL1 600 mg once daily × 3 + sLV5FU2, 1st cycle, n = 3
[4] = DL1 600 mg once daily × 3 + sLV5FU2, Any cycle, n = 3
[5] = DL2 600 mg twice daily × 3 + sLV5FU2, 1st cycle, n = 6

O=C(CCCCCCC(=O)Nc1ccccc1)NO [vorinostat, suberoylanilide hydroxamic acid]
Dose-limiting toxicities (800 mg vorinostat twice-daily dose level + sLV5FU2): Grade 3 fatigue and mucositis
Dose-limiting toxicities (2,000 mg vorinostat once-daily dose level + sLV5FU2): Grade 3 fatigue, and hand and foot syndrome
ATE, treatment-related, patients (G2/G3/G4) [1]: 0/0/0
Anemia, treatment-related, patients (G2/G3/G4) [1]: 0/0/0
Anorexia, treatment-related, patients (G2/G3/G4) [1]: 0/0/0
Chelitis, treatment-related, patients (G2/G3/G4) [1]: 0/0/0
Dehydration, treatment-related, patients (G2/G3/G4) [1]: 0/0/0
Diarrhea, treatment-related, patients (G2/G3/G4) [1]: 1/0/0
Esophagitis, treatment-related, patients (G2/G3/G4) [1]: 0/0/0
Fatigue, treatment-related, patients (G2/G3/G4) [1]: 2/0/0
Fever, treatment-related, patients (G2/G3/G4) [1]: 0/0/0
Headache, treatment-related, patients (G2/G3/G4) [1]: 0/0/0
Mucositis, treatment-related, patients (G2/G3/G4) [1]: 0/0/0
Nausea, treatment-related, patients (G2/G3/G4) [1]: 1/0/0
Neutropenia, treatment-related, patients (G2/G3/G4) [1]: 0/0/0
Thrombocytopenia, treatment-related, patients (G2/G3/G4) [1]: 0/0/0
VTE, treatment-related, patients (G2/G3/G4) [1]: 0/0/0
Vomiting, treatment-related, patients (G2/G3/G4) [1]: 1/0/0
ATE, treatment-related, patients (G2/G3/G4) [2]: 0/0/0
Anemia, treatment-related, patients (G2/G3/G4) [2]: 0/0/0
Anorexia, treatment-related, patients (G2/G3/G4) [2]: 2/0/0
Chelitis, treatment-related, patients (G2/G3/G4) [2]: 0/0/0
Dehydration, treatment-related, patients (G2/G3/G4) [2]: 0/0/0
Diarrhea, treatment-related, patients (G2/G3/G4) [2]: 1/0/0
Esophagitis, treatment-related, patients (G2/G3/G4) [2]: 1/0/0
Fatigue, treatment-related, patients (G2/G3/G4) [2]: 3/0/0
Fever, treatment-related, patients (G2/G3/G4) [2]: 1/0/0
Headache, treatment-related, patients (G2/G3/G4) [2]: 0/0/0
Mucositis, treatment-related, patients (G2/G3/G4) [2]: 1/0/0
Nausea, treatment-related, patients (G2/G3/G4) [2]: 2/0/0
Neutropenia, treatment-related, patients (G2/G3/G4) [2]: 0/0/0
Thrombocytopenia, treatment-related, patients (G2/G3/G4) [2]: 0/0/0
VTE, treatment-related, patients (G2/G3/G4) [2]: 0/0/0
Vomiting, treatment-related, patients (G2/G3/G4) [2]: 1/0/0
Anemia, treatment-related, patients (G2/G3/G4) [3]: 1/0/0
Anorexia, treatment-related, patients (G2/G3/G4) [3]: 1/0/0
DVT/PE, treatment-related, patients (G2/G3/G4) [3]: 0/0/0
Dehydration, treatment-related, patients (G2/G3/G4) [3]: 0/0/0
Diarrhea, treatment-related, patients (G2/G3/G4) [3]: 0/0/0
Fatigue, treatment-related, patients (G2/G3/G4) [3]: 1/0/0
GI bleed, treatment-related, patients (G2/G3/G4) [3]: 0/0/0
Hand and Foot, treatment-related, patients (G2/G3/G4) [3]: 0/0/0
Infection, treatment-related, patients (G2/G3/G4) [3]: 0/0/0
Mucositis, treatment-related, patients (G2/G3/G4) [3]: 0/0/0
Nausea, treatment-related, patients (G2/G3/G4) [3]: 1/0/0
Neutropenia, treatment-related, patients (G2/G3/G4) [3]: 0/0/0
Thrombocytopenia, treatment-related, patients (G2/G3/G4) [3]: 1/0/0
Vomiting, treatment-related, patients (G2/G3/G4) [3]: 0/0/0
Weight Loss, treatment-related, patients (G2/G3/G4) [3]: 0/0/0
Anemia, treatment-related, patients (G2/G3/G4) [4]: 1/0/0
Anorexia, treatment-related, patients (G2/G3/G4) [4]: 1/0/0
Creatinine, treatment-related, patients (G2/G3/G4) [4]: 1/0/0
DVT/PE, treatment-related, patients (G2/G3/G4) [4]: 0/0/0
Dehydration, treatment-related, patients (G2/G3/G4) [4]: 1/0/0
Diarrhea, treatment-related, patients (G2/G3/G4) [4]: 0/1/0
Fatigue, treatment-related, patients (G2/G3/G4) [4]: 2/0/0
GI bleed, treatment-related, patients (G2/G3/G4) [4]: 0/0/0
Hand and Foot, treatment-related, patients (G2/G3/G4) [4]: 0/0/0
Infection, treatment-related, patients (G2/G3/G4) [4]: 0/0/0
Mucositis, treatment-related, patients (G2/G3/G4) [4]: 2/0/0
Nausea, treatment-related, patients (G2/G3/G4) [4]: 1/0/0
Neutropenia, treatment-related, patients (G2/G3/G4) [4]: 0/0/0
Thrombocytopenia, treatment-related, patients (G2/G3/G4) [4]: 1/0/0
Vomiting, treatment-related, patients (G2/G3/G4) [4]: 1/0/0
Weight Loss, treatment-related, patients (G2/G3/G4) [4]: 0/0/0
DLT (DL1 (500 mg twice daily × 3) and DL2 (600 mg twice daily), three patients each): without any DLT
ATE, treatment-related, patients (G2/G3/G4) [5]: 0/0/0
Anemia, treatment-related, patients (G2/G3/G4) [5]: 1/0/0
Anorexia, treatment-related, patients (G2/G3/G4) [5]: 2/0/0
Chelitis, treatment-related, patients (G2/G3/G4) [5]: 0/0/0
Dehydration, treatment-related, patients (G2/G3/G4) [5]: 0/0/0
Diarrhea, treatment-related, patients (G2/G3/G4) [5]: 1/0/0
Esophagitis, treatment-related, patients (G2/G3/G4) [5]: 0/0/0
Fatigue, treatment-related, patients (G2/G3/G4) [5]: 3/0/0
Fever, treatment-related, patients (G2/G3/G4) [5]: 0/0/0
Headache, treatment-related, patients (G2/G3/G4) [5]: 0/0/0
Mucositis, treatment-related, patients (G2/G3/G4) [5]: 0/0/0
